Laboratory results as given in ChEMBL document CHEMBL1201862, “PubChem BioAssay data set” (2004).
Active and inactive are the calls of the source.

Key:
[1] = Luminescence-based dose response cell-based high throughput screening assay for cytotoxic compounds using the IEC-6 intestinal epithelial cell line. [Related pubchem assays: 1858 (Summary AID.), 1825 (Counterscreen.), 1907 (Confirmation screen.)]; assay type: functional
[2] = molecular target: Peroxisome proliferator-activated receptor gamma/Nuclear receptor coactivator 2 (Homo sapiens, UniProt P37231); assay type: functional;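 also: agonist potency for raising coactivator recruitment to the receptor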
Chain of Peroxisome proliferator-activated receptor gamma/Nuclear receptor coactivator 2 (P37231 whole entry): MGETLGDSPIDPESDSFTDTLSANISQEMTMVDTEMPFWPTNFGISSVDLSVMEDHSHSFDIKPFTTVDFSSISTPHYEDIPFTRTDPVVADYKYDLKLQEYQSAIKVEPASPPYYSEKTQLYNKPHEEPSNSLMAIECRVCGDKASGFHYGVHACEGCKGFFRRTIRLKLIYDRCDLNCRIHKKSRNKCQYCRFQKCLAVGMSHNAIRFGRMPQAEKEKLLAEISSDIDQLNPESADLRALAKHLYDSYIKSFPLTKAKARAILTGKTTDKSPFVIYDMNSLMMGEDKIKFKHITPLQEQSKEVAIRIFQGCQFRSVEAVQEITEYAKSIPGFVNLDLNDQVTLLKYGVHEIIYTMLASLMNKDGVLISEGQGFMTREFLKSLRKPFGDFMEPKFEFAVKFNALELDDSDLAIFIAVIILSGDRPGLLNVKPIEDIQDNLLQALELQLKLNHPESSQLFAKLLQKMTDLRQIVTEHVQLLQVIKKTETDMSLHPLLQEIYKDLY
Chain of Peroxisome proliferator-activated receptor gamma/Nuclear receptor coactivator 2 (Q15596 whole entry, further chain): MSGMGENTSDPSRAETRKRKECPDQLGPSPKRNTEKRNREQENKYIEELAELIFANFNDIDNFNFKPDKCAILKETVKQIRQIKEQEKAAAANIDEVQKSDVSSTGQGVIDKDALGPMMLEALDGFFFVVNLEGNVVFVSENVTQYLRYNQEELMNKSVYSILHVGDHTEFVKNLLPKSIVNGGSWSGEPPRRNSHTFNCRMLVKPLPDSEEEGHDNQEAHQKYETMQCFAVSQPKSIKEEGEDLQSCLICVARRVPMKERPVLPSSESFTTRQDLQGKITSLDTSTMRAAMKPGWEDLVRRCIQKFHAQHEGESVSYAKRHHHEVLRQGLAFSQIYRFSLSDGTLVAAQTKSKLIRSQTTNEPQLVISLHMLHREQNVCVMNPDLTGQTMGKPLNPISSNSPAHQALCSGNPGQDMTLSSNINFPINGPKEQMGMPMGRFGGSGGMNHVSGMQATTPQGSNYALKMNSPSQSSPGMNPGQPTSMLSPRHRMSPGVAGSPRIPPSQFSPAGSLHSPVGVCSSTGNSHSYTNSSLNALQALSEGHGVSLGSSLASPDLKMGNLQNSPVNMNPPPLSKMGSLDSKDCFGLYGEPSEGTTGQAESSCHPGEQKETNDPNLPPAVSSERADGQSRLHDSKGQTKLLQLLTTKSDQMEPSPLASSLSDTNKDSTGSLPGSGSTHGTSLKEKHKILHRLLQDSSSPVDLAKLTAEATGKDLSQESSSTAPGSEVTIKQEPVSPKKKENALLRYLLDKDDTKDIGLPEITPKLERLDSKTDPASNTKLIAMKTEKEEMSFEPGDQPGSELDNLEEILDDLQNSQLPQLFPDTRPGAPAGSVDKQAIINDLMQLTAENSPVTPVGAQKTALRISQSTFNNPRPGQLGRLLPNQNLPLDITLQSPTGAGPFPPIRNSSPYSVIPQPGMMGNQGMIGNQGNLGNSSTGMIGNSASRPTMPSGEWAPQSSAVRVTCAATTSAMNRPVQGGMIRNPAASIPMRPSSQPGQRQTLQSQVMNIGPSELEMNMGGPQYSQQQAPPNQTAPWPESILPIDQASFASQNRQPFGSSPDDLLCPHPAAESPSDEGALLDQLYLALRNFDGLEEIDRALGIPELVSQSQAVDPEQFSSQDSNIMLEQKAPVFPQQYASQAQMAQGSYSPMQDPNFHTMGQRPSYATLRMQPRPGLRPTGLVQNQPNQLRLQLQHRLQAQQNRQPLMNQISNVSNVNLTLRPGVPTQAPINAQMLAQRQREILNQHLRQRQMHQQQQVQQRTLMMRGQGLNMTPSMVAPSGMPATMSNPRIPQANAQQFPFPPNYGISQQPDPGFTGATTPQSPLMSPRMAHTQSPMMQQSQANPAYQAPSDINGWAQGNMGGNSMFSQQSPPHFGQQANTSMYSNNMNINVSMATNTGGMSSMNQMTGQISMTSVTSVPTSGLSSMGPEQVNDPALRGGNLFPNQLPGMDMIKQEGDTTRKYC

[3] = molecular target: Peroxisome proliferator-activated receptor gamma/Nuclear receptor coactivator 1 (Homo sapiens, UniProt P37231); assay type: functional;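 also: agonist potency as compounds enhance coactivator SRC-1 recruitment to PPARgamma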
Chain of Peroxisome proliferator-activated receptor gamma/Nuclear receptor coactivator 1 (P37231 whole entry): as the sequence (P37231 whole entry) above
Chain of Peroxisome proliferator-activated receptor gamma/Nuclear receptor coactivator 1 (Q15788 whole entry, further chain): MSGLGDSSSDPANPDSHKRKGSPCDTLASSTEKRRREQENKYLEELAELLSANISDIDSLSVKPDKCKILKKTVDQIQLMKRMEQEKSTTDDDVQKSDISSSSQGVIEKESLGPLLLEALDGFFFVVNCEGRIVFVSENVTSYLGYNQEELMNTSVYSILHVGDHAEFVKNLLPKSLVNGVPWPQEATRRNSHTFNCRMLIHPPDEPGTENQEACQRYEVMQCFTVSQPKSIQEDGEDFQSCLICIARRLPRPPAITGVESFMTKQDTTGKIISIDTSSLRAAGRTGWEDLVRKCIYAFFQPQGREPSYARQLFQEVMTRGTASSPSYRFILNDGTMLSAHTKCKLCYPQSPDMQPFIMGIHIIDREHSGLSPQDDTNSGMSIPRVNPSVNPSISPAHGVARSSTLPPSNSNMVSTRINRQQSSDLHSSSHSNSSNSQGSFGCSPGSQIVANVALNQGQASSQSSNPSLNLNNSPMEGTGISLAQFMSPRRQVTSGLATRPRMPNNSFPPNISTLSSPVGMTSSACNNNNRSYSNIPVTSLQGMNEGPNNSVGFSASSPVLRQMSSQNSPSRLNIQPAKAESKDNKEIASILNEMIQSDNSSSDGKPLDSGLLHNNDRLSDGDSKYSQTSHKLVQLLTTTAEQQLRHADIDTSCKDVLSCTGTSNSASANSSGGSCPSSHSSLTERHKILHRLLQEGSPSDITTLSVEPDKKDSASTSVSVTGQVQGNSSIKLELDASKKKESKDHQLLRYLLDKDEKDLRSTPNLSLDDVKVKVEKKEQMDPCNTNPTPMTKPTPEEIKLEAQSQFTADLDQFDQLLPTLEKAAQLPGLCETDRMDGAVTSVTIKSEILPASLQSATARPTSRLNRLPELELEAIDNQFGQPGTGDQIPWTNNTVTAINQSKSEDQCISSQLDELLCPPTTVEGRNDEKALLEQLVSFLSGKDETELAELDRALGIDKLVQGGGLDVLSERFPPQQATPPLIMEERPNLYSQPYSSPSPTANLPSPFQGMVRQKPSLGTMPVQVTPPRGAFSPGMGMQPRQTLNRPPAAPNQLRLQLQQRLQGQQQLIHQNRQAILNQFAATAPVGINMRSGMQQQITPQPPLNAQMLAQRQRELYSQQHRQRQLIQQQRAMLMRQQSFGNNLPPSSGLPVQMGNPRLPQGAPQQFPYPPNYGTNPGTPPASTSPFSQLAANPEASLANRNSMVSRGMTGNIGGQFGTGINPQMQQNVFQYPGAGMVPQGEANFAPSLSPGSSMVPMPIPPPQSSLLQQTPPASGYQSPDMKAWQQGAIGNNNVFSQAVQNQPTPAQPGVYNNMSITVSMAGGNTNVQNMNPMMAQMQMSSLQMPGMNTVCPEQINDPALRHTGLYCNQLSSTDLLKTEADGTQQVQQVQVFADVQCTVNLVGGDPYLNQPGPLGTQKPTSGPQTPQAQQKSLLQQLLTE

[4] = molecular target: Peroxisome proliferator-activated receptor gamma/Nuclear receptor coactivator 3 (Homo sapiens, UniProt P37231); assay type: functional;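 also: agonist potency for raising coactivator recruitment to the receptor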
[5] = antiviral protection against BTV-induced cell death – arbovirus, BSR cells, confirmation (AID 1250); assay type: functional;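 also: protection from viral cytopathic effect measured as cell viability by ATP luminescence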
[6] = molecular target: Neuropeptide Y receptor type 1 (Homo sapiens, UniProt P25929); test: IC50 of human NPY-Y1 blockers – cell-based, dose response (AID 1277); assay type: functional
[7] = Trypanosoma cruzi growth suppression in host cells – NIH3T3 host cells, beta-gal luminescence, confirmation (AID 2044); assay type: functional, cell-based;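 also: intracellular parasites grown in NIH/3T3 mouse fibroblasts as host cells; luminescent beta-galactosidase reporter signal from transgenic T. cruzi replicating inside host cells; inhibitors lower the luminescence signal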
[8] = NIH3T3 cell viability loss – ATP luminescence, mouse fibroblasts, counter-screen, dose response (AID 2010); assay type: functional, cell-based;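 also: cells exposed to compound for about 90 hours before reading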
[9] = molecular target: T1, Sphingosine 1-phosphate receptor 4 (Homo sapiens, UniProt O95977); test: Fluorescence dose response cell-based high throughput screening assay for antagonists of the Sphingosine 1-Phosphate Receptor 4 (S1P4). [Related pubchem assays: 1524 (Confirmation in triplicates.), 1510 (Primary screen.)]; assay type: functional
T1 sequence (O95977 whole entry): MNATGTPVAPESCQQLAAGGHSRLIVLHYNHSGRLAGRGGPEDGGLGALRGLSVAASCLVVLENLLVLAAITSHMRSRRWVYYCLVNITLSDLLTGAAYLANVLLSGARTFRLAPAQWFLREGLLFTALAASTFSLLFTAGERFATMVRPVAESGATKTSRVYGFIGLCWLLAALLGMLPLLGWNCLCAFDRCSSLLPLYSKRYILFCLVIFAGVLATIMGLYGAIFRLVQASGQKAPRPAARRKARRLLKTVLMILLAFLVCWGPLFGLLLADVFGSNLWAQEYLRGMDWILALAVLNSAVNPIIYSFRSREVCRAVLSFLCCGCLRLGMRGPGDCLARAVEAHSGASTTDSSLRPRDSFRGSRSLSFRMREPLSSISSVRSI

[10] = molecular target: Sphingosine 1-phosphate receptor 1 (Homo sapiens, UniProt P21453); assay type: functional;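 also: Tango beta-arrestin reporter U2OS cells stimulated with S1P near its EC80; inhibitor potency meaning antagonism of receptor activation by the natural agonist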
Chain of Sphingosine 1-phosphate receptor 1 (P21453 whole entry): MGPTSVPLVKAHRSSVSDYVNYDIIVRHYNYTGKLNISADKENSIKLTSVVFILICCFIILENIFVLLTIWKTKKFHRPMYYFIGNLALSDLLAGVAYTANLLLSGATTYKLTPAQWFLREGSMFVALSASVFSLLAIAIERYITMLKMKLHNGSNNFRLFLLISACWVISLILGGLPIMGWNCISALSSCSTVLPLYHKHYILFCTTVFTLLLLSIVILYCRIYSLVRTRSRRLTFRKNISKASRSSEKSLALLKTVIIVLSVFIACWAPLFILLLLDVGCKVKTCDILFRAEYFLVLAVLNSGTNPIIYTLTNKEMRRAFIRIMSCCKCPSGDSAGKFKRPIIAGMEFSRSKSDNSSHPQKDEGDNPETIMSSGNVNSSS

[11] = molecular target: T2, Microphthalmia-associated transcription factor (Homo sapiens, UniProt O75030); test: reducers of TRPM1 reporter luminescence, concentration series – cell-based, SK-MEL-5, cherry-picked, set 3, MITF inhibitor project, dose response (AID 493073); assay type: functional;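 also: SK-MEL-5 melanoma cells with luciferase driven by the MITF target TRPM1 promoter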
T2 sequence (O75030 whole entry): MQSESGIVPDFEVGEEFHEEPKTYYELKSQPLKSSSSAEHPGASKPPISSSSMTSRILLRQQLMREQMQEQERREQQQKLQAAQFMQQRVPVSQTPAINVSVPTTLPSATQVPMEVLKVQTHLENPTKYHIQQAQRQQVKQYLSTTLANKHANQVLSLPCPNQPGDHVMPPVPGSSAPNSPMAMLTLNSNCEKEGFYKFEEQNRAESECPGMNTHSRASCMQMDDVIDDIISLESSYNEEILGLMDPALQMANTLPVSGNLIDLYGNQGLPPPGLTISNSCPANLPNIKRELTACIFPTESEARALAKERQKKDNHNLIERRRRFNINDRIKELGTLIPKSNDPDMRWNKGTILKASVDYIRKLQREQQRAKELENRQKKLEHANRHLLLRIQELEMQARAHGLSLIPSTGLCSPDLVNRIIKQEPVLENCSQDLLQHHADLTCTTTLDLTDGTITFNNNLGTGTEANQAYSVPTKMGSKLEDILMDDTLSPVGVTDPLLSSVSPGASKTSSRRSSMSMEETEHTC

[12] = Fluorescence-based cell-based high throughput dose response assay for inhibitors of the interaction of nucleotide-binding oligomerization domain containing 2 (NOD2) and the receptor-interacting serine-threonine kinase 2 (RIPK2).; assay type: functional; settings: Homo sapiens
[13] = reduced cellular PGC1a acetyl-lysine signal – cell-based, cherry-picked samples, dose response (AID 720514); assay type: functional;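 also: potency may reflect raised or lowered acetylation signal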
Cytochrome P450 2C19 = Cytochrome P450 2C19 (Homo sapiens, UniProt P33261); test: Cytochrome panel assay with activity outcomes. Panel member name: p450-cyp2c19 Compounds with AC50 equal or less than 10 uM are considered active; assay type: functional; settings: read-out: AC50
Cytochrome P450 1A2 = molecular target: T3, Cytochrome P450 1A2 (Homo sapiens, UniProt P05177);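 also: PubChem cytochrome P450 panel assay, CYP1A2 panel member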
T3 sequence (P05177 whole entry): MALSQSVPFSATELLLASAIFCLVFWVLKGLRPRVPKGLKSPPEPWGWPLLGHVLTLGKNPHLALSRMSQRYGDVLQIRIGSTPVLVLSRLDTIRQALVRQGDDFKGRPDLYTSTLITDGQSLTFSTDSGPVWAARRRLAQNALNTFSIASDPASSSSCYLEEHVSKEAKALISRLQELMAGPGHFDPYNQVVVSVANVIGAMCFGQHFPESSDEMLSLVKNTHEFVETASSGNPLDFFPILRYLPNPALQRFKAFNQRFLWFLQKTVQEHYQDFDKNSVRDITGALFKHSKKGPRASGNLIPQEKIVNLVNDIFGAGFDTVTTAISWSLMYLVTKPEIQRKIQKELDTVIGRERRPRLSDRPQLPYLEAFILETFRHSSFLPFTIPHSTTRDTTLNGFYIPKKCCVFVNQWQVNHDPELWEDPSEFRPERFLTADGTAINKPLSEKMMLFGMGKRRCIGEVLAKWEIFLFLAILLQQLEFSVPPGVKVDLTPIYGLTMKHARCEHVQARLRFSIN

[14] = Luminescence Cell-Based Dose Response to Identify Activators of 5'UTR Stem-Loop Driven Prion Protein mRNA Translation in H4-C Neuroglioblastoma Cells. [Related pubchem assays: 1829 (Project Summary), 1814 (Primary HTS)]; assay type: functional
[15] = Luminescence Cell-Based Dose Confirmation HTS to Identify Activators of 5'UTR Stem-Loop Driven Alpha-Synuclein mRNA Translation in H4 Neuroglioblastoma Cells. [Related pubchem assays: 1829 (Project Summary), 1814 (Primary HTS)]; assay type: functional
[16] = Luminescence Cell-Based Dose Response HTS to Identify Activators of Luciferase Translation or Activity in H4 […] Cells. [Related pubchem assays: 1829 (Project Summary), 1814 (Primary HTS)]; assay type: functional
H4 = test: Luminescence Cell-Based Dose Response HTS to Identify Activators of 5'UTR Stem-Loop Driven Prion Protein mRNA Translation in H4 Neuroglioblastoma Cells. [Related pubchem assays: 1829 (Project Summary), 1814 (Primary HTS)]; assay type: functional; settings: Homo sapiens
[17] = Luminescence Cell-Based Dose Response to Identify Activators of Luciferase Translation or Activity in H4-C Neuroglioblastoma Cells. [Related pubchem assays: 1829 (Project Summary), 1814 (Primary HTS)]; assay type: functional
Large T antigen = Large T antigen (Simian virus 40, UniProt P03070); assay type: functional, Betapolyomavirus macacae;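 also: Confirmatory-stage PubChem screen for compounds that inhibit SV40 T antigen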
Chain of Large T antigen (P03070 whole entry): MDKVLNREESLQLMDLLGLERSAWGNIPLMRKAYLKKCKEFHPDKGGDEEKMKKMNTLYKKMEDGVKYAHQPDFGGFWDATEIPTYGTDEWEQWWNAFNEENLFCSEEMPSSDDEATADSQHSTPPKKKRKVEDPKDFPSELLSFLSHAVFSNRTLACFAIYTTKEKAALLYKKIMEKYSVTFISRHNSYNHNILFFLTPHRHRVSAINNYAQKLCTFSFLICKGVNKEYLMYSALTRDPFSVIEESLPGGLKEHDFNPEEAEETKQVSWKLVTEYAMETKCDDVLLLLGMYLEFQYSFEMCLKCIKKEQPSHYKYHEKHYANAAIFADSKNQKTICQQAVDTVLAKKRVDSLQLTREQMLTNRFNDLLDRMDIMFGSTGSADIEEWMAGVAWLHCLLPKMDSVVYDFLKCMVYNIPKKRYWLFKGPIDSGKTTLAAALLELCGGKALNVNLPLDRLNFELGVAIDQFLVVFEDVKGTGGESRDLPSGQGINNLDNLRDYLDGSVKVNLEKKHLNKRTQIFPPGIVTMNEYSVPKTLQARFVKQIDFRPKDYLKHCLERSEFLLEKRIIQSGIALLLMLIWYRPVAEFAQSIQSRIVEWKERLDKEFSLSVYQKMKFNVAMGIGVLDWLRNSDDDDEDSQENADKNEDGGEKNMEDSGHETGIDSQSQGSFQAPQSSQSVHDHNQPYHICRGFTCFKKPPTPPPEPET

[18] = Luminescence Cell-Based Dose Confirmation to Identify Activators of 5'UTR Stem-Loop Driven Alpha-Synuclein mRNA Translation in H4 Neuroglioblastoma Cells. [Related pubchem assays: 1829 (Project Summary), 1814 (Primary HTS)]; assay type: functional
[19] = molecular target: Induced myeloid leukemia cell differentiation protein Mcl-1 (Homo sapiens, UniProt Q07820); assay type: functional
cells [20] = assay type: functional, cell-based
cells [21] = assay type: functional, cell-based; remark: listed apart in the source
[22] = mitochondrial function rescue without frataxin homolog – Friedreich's ataxia, plus single-dose screen, dose response (AID 1465); assay type: functional;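 also: yeast depleted of Yfh1p frataxin homolog grown on glycerol needing respiration; WST-1 tetrazolium dye reduction as measure of cellular dehydrogenase metabolic activity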
[23] = molecular target: T4, Mannose-6-phosphate isomerase (Homo sapiens, UniProt P34949); test: MPI inhibition at elevated mannose 6-phosphate – biochemical, fluorescence intensity, high mannose 6-phosphate, primary screen (AID 1220)
T4 sequence (P34949 whole entry): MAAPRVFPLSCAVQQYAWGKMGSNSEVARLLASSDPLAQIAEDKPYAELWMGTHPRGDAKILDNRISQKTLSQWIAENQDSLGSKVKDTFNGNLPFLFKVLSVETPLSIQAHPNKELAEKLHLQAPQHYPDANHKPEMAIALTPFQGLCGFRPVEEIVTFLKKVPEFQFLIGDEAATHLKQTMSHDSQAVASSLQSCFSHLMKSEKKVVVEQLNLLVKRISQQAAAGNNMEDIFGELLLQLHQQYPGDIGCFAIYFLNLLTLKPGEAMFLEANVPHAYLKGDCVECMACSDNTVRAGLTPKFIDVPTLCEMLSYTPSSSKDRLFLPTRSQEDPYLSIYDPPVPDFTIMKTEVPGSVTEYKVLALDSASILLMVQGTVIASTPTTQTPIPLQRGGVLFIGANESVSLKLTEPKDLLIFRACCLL

Nonstructural protein 1 = Nonstructural protein 1 (Influenza A virus, UniProt Q194T2); assay type: functional, Influenza A virus (A/California/07/2009(H1N1))
INS1 = test: INS-1E survival protection against cytokine death – cell-based, luminescence, retest, dose response (AID 449756); assay type: functional; settings: Rattus norvegicus;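 also: cell death triggered by IL-1 beta plus TNF-alpha plus IFN-gamma mixture; protective hits raise ATP signal compared with cytokine alone wells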
[24] = molecular target: T5, Histone-lysine N-methyltransferase NSD2 (Homo sapiens, UniProt O96028); assay type: biochemical
T5 sequence (O96028 whole entry): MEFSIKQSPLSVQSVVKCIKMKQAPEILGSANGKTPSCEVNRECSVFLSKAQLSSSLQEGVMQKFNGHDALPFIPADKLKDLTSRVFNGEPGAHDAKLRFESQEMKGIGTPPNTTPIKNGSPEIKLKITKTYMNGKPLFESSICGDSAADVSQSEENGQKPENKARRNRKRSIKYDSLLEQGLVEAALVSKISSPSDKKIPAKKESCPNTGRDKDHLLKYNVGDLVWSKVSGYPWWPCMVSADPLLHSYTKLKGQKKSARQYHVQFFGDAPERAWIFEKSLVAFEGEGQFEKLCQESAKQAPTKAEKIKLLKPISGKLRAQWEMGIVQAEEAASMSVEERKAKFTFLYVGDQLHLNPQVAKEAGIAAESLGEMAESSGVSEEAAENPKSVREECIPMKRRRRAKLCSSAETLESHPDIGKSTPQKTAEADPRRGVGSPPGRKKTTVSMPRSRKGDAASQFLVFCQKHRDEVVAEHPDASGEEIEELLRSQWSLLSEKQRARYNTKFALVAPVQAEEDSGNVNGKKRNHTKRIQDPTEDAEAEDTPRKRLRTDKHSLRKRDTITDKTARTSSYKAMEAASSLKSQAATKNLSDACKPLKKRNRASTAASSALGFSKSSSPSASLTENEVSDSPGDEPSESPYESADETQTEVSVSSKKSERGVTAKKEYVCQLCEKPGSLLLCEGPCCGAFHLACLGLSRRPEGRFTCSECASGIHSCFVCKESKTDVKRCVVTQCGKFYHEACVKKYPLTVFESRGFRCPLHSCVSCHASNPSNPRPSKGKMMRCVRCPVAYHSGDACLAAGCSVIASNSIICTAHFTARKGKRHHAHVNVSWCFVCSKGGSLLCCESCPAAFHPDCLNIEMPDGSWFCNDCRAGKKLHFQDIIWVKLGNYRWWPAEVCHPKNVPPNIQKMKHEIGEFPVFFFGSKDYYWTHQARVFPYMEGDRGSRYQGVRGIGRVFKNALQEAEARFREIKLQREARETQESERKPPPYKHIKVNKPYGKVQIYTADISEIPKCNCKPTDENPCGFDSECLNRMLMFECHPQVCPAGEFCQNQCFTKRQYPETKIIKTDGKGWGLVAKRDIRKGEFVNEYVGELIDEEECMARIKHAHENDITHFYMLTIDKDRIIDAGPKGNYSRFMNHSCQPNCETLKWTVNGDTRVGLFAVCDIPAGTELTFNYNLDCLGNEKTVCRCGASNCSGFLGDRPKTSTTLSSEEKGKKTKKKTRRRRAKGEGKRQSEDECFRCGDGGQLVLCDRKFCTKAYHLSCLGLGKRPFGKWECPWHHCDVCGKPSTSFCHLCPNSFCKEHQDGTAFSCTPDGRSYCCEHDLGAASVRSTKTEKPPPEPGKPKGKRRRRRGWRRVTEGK

N=C(N)Nc1ccc(NC(=N)N)cc1
IC50 [1]: 1.8 µM (active)

CCCNC(=O)C(CC)NS(=O)(=O)c1ccc(OC)cc1 (centres undefined)
EC50 [2]: > 79.4 µM (not active) | EC50 [3]: > 79.4 µM (not active) | EC50 [4]: > 79.4 µM (not active)

Cc1ccc2nc(NC(=O)C3=NN(c4ccccc4)C(=O)CC3)sc2c1
IC50 [5]: 29 µM (active)

CCc1cc(-c2n[nH]cc2-c2ccc3c(c2)OCO3)c(O)cc1O
IC50 [6]: 13.3 µM (not active)

O=C(Cn1ncc(Cl)c(Cl)c1=O)c1ccc(Cl)cc1
EC50 [7]: 2.11 µM (active) | EC50 [8]: 2.41 µM (active) | IC50 [9]: 2.15 µM (active) | IC50 [10]: 7.28 µM (active) | AC50 [11]: 8.81 µM (active) | IC50 [12]: 1.84 µM (active) | AC50 [13]: 3.39 µM (active)

CCOC(=O)CC(=O)CSc1nc(-c2ccccc2)cc(-c2ccc(Cl)cc2)c1C#N
EC50 [2]: 14.8 µM (not active) | EC50 [3]: 16.4 µM (not active) | EC50 [4]: 18.7 µM (not active) | AC50 (Cytochrome P450 2C19): 7.08 µM (inconclusive) | AC50 (Cytochrome P450 1A2): 2.24 µM (inconclusive)

Oc1ccc(-c2csc(Nc3ncccn3)n2)cc1O
EC50 [14]: 0.815 µM (active) | EC50 [15]: 0.1 µM (active) | EC50 [16]: 3.45 µM (active) | EC50 (H4): 0.125 µM (active) | EC50 [17]: > 12 µM (not active) | IC50 (Large T antigen): 14 µM (active) | EC50 [18]: 0.67 µM (active) | IC50 [19]: 3.52 µM (active)

Oc1cccc(/C=N/NC(=S)Nc2cccnc2)c1O
EC50 (cells [20]): 13.6 µM (active) | IC50 (Large T antigen): 15 µM (active) | EC50 (cells [21]): 83 µM (active) | EC50 [22]: > 100 µM (active) | IC50 [23]: 16.1 µM (active) | IC50 (Nonstructural protein 1): 1.83 µM (active) | AC50 (INS1): 0.976 µM (active) | AC50 [24]: 12.4 µM (active)
